Experimental data as given in US6511811B1, “Protein kinase C antagonist related to insulin receptor” (The Regents of the University of California, priority 1995, dated 2003).
Ends that are not written are not given here.

How the values were obtained:
[1] = tested on: HIRcB cells; assay: Microinjection of insulin receptor-derived peptides, insulin-stimulated DNA synthesis (BrDU incorporation); type: cell-based, Rat; settings: FIG. 13; for Insulin-stimulated DNA synthesis: high glucose (25 mM); for Insulin-stimulated DNA synthesis / DNA synthesis in insulin-stimulated cells: peptide 10 mM microinjected, 100 ng/ml insulin; for DNA synthesis in insulin-stimulated cells: normal glucose (5 mM)
Procedure: HIRcB cells were grown to sub-confluence on glass coverslips in D-MEM medium containing normal (5 mM) or high (25 mM) glucose and rendered quiescent by serum deprivation for 24 h. Synthetic cyclo-peptides were derived from the human insulin receptor, containing sequence […] (SEQ ID NO:5) (Serine-1035) and […] (SEQ ID NO:1) (Serine-1270) were synthesized using methods well known in the art. The peptides were dissolved in microinjection buffer containing 5 mM NaPO4 and 100 mM KCl, pH 7.2, to a final concentration of 10 mM. All microinjected reagents contained rabbit IgG (5 mg/ml) to allow the identification […] cells. Samples were microinjected into the cell cytoplasm using an automated microinjection system at a typical needle pressure of about 100 hectopascals resulting in the introduction of 10^5 molecules of IgG.
Approximately 1 h after microinjection, the cells were stimulated with 100 ng/ml insulin and […] BrDU was added. Cells were incubated at 37° C. for an additional 16 h, and then fixed and stained using a monoclonal anti-BrDU antibody. Injected cells were identified with fluorescein isothiocyanate-conjugated donkey anti-rabbit IgG. Nuclear BrDU incorporation was detected with tetramethylrhodamine isothiocyanate-conjugated donkey anti-mouse IgG. The cells were analyzed by fluorescence microscopy.

[2] = tested on: insulin receptor; assay: 32P labelling and two-dimensional tryptic phosphopeptide analysis of insulin receptor; type: cell-based, human; settings: stimulation of 32P-labelled HIRcB cells; FIG. 8
Procedure: HIRcB cells were serum-starved for 16 h and then incubated in phosphate-free DMEM containing 2 mCi/ml ^32P-orthophosphate for 3 h. The cells were then stimulated with high glucose (25 mM) or insulin as indicated. The cells were lysed, and the insulin receptor was immunoprecipitated using […] antibody 83-14 as described. The washed immunoprecipitates were analyzed by SDS electrophoresis. The labeled β-subunit was visualized by autoradiography, excised from the gels and recovered by electroelution.
Polyacrylamide-gel pieces containing ^32P-labeled IR and IRS-1 following in vitro phosphorylation were electroeluted in 20 mM Tris-HCl, pH 8.0, 2 mM EDTA, 0.1% SDS, and 0.1% 2-mercaptoethanol for 4 h. Eluted protein was precipitated with four volumes of acetone at −80° C. for 60 min followed by centrifugation at room temperature for 10 min at 10,000 g. The pellet was dried and digested with 10 μg of TPCK-treated trypsin (Worthington Diagnostic Systems, Freehold, N.J.) in 100 μl of 100 mM N-ethylmorpholine acetate (NMA), pH 8.2, for 24 h at 37° C. A further 10 μg of TPCK-treated trypsin was added and digestion continued for 12 h. The peptides were lyophilized, resuspended with water, and re-lyophilized at least three times. The ^32P-labeled tryptic peptides were then resuspended in 5 μl of electrophoresis buffer and spotted onto thin layer cellulose plates. […]

[3] = tested on: HIRcB cells; assay: Insulin-stimulated DNA synthesis (BrDU incorporation) with PKC inhibitors; type: cell-based, Rat; settings: microinjection of the inhibitor peptide, high glucose 25 mM; FIG. 11
Procedure: HIRcB or ΔCT cells were cultured on acid-washed glass coverslips, grown to semi-confluence, and then starved in serum-free DME with 1 mM glucose. The peptide was dissolved in microinjection buffer containing 5 mM NaPO4 and 100 mM KCl, pH 7.4. The cells were microinjected with the PKC inhibitor peptide using glass capillary needles. Approximately 10 femtoliters of this solution was introduced into each cell. The injection included 1×10^6 molecules of IgG as marker for microinjection.
Two hours after microinjection, cells were incubated with BrDU plus various concentrations of growth factors for 16 h at 37° C. The cells were fixed with acid alcohol (90% ethanol, 5% acetic acid) for 20 min at 22° C., and then incubated with mouse monoclonal anti-BrDU antibody for 1 h at 22° C. […] After coverslips were mounted, the cells were analyzed and photographed with an Axiophot fluorescence microscope (Zeiss). […]
The effects of high glucose upon insulin-induced DNA synthesis were examined by first exposing cells to high glucose for 1 h, and then to insulin and BrDU for an additional 18 h. High glucose decreased DNA synthesis in insulin-stimulated cells by 30%, as measured by BrDU incorporation (FIG. 10).

[4] = tested on: insulin receptor kinase activity; settings: incubation of cells with the inhibitor; Mosthaf et al.; cited from earlier work

Row | Molecule | Insulin-stimulated DNA synthesis [1] | DNA synthesis in insulin-stimulated cells [1] | Effect on hyperglycemia-induced inhibition of insulin receptor kinase activity [4] | also measured
1 | KTVNESASLRE (also: cyclized; listed as Homo sapiens) [Ser-1035] | significantly increased insulin-stimulated DNA synthesis | slightly increased DNA synthesis | – | –
2 | CCCCCCCCCCCCCC(=O)O[C@@H]1[C@@H](C)[C@@]2(O)[C@@H](C=C(CO)C[C@]3(O)C(=O)C(C)=C[C@@H]23)[C@@H]2C(C)(C)[C@]12OC(C)=O [Phorbol ester] | – | – | – | Increase of insulin receptor phosphorylation [2]: 1.5 fold
3 | RFARKGALRQKNV [peptide 19-31] | – | – | – | Reversal of high glucose inhibition of insulin-stimulated DNA synthesis (BrDU incorporation) [3]: partially reversed inhibition of DNA synthesis
4 | CC1CNCCN1S(=O)(=O)c1cccc2cnccc12 (stereo not drawn) [H7] | – | – | is inhibited | –
5 | polymyxin B | – | – | is inhibited | –
6 | DDLHPSFPEVS (also: cyclized; listed as Homo sapiens) [Ser-1270] | significantly increased insulin-stimulated DNA synthesis | slightly increased DNA synthesis | – | Increase in DNA synthesis compared between the two injected peptides ([1]; normal and high glucose, in each instance): greater than in Ser-1035 peptide-injected cells
